We go through four molecules from PMC4286469 (Cancer research, 2014).

Where a SMILES comes first, the peptide text is derived from it. The star is where a group is joined. Cbz = O=C(OCc1ccccc1)*; CH2F = FC*

One data set concerns SK-Mel5 melanoma cells. Briefly: Viability/cytotoxicity of SK-Mel5 melanoma cells. The data set is classed as cell-based, human. The conditions noted are these: for viability of melanoma cells under continuous exposure: p53^WT SK-Mel5, (−)-Nutlin-3 10µM, MLN8237 1µM, 7 days, Fig. 1D, E.
Data set [1] deals with p53. Briefly: p53 and p53 target levels in cultured p53^WT melanoma cells. The data set is classed as cell-based, human. The conditions noted are these: for accumulation of p53 and its transcriptional targets: p53^WT cells (SK-Mel5 and Hs294T), (−)-Nutlin-3 10µM, MLN8237 1µM, 5 days.
A further data set has as its system SK-Mel5 xenografts. Briefly: Marker analysis of SK-Mel5 xenograft tumors. It counts as in vivo, BALB/C nu/Foxn1 athymic nude mice. As to conditions: for p53 induction/activation in tumors (Western blot): (−)-Nutlin-3 200mg/kg. Background: A western blot detects proteins with antibodies after separation by electrophoresis.
Data set [2] deals with B16F0 tumors. Briefly: B16F0 tumors in syngeneic immunocompetent C57Bl/6 mice. It counts as in vivo.
Data set [3] deals with B16F0 tumors. Briefly: B16F0 tumors in immunodeficient NSG mice. The data set is classed as in vivo. The conditions noted are these: Fig. 4I.
For data set [4] the following is noted: mouse, in vivo, po, 30 mg/kg.
Data set [5] relates to patient-derived metastatic melanoma tumors. As to conditions: independent of BRAF and NRAS mutational status; ref [7]; cited from earlier work.
Another data set in a line: in vivo. The conditions noted are these: C57Bl6, mouse, po, 30 mg/kg.
The subject of data set [6] is non-resectable melanoma tumors driven by BRAF^V600E. The conditions noted are these: patients; ref [1]–[5]; cited from earlier work.
The subject of another data set is SK-Mel5 cells. It counts as cell-based, human.
The subject of a further data set is cells with p53 knockout. Briefly: Viability of cells with p53 knockout. The data set is classed as cell-based. As to conditions: Fig. S2A.
Data set [7] deals with p53. The experiment in a line: p53 level and activity in p53^MUT SK-Mel28 cells. The data set is classed as cell-based, human.
Data set [8] in a line: Plasma and tumor pharmacokinetics in B16F0 melanoma-bearing C57Bl6 mice. The conditions noted are these: 200 mg/kg oral.

Take `COc1cc(Nc2ncc3c(n2)-c2ccc(Cl)cc2C(c2c(F)cccc2OC)=NC3)ccc1C(=O)O` [MLN8237]: the “viability of melanoma cells under continuous exposure” value with SK-Mel5 melanoma cells is “mostly cytostatic response”. The “accumulation of p53 and its transcriptional targets” value in the data set with p53 [1] was “induced p53 accumulation”. Besides, in the data set with SK-Mel5 xenografts (MLN8237 30mg/kg daily), the “p53 induction/activation in tumors (Western blot)” value is “moderate induction of p53”; the “AURKA activity (auto-phosphorylation) in tumor lysates” value is given as “inhibited AURKA activity”; the “tumor senescence (SA-β-Gal activity) and proliferation markers” value is “inhibition of cancer cell proliferation and induction of senescence”. Also, in the data set with B16F0 tumors [2] ((−)-Nutlin-3 200mg/kg twice daily, MLN8237 30mg/kg once a day, oral gavage), the tumor growth entry is “partially inhibited tumor growth”. Besides, the “CCL5 levels in melanoma cells and fibroblasts sorted from tumors (qRT-PCR)” value in the data set on B16F0 tumors [2] (Fig. 5B) is “increased”. Besides, the “tumor necrosis (H&E)” value in the data set with B16F0 tumors [2] (immunocompetent mice, Fig. 4G) was “striking absence of necrosis”. For the same molecule, the “clearance of necrotic areas in senescent tumors” value in the data set on B16F0 tumors [3] is “abrogated”. Also, the “overall median MLN8237 AUC0–24hr, tumor tissue” value in data set [4] was found to be 37.4 µg·h/g. Also, the “patient-derived metastatic melanoma tumors with markedly slowed growth” value in [5] is above 75%. Besides, the AUC(0-t) in “in vivo” stood at 42.7 µg·h/mL.
As to `CC(C)(C)c1nc(-c2cccc(NS(=O)(=O)c3c(F)cccc3F)c2F)c(-c2ccnc(N)n2)s1` [dabrafenib], in data set [6], the median progression-free survival was 6 months.
Regarding `COC(=O)C[C@H](NC(=O)[C@H](C)NC(=O)[C@@H](NC(=O)OCc1ccccc1)C(C)C)C(=O)CF` [pan-caspase inhibitor, Z-VAD-FMK] (Cbz-Val-Ala-Asp(OMe)-CH2F), the “effect of pan-caspase inhibitor on cytotoxic response to p53 activation” value in the data set on SK-Mel5 cells was “did not interfere”.
(−)-Nutlin-3: the “cytotoxicity in senescent and non-senescent cells” value with SK-Mel5 melanoma cells (SK-Mel5, senescent (1 µM MLN8237 pre-treated) and non-senescent (vehicle pre-treated) cells, Fig. 1A, B) is “dose-dependent cytotoxicity”. Moreover, in the data set on SK-Mel5 melanoma cells, the “viability of melanoma cells under continuous exposure” value is on record as “killed p53^WT melanoma cells”. For the same molecule, in the data set with cells with p53 knockout, the “viability of cells with p53 knockout” value is reported as “did not affect viability”. Also, in the data set on p53 [1] (in vitro, Fig. S2B), the “cells showing strong p53 induction in vitro” value amounted to 100%. Further, the “accumulation of p53 and its transcriptional targets” value with p53 [1] is “induced accumulation of p53 and its transcriptional targets p21, PUMA, BAX and MDM2”. The “level and activity of p53” value in the data set with p53 [7] is “unaffected”. The “mitochondrial membrane potential (JC-1)” value in the data set with SK-Mel5 cells ((−)-Nutlin-3 10µM, MLN8237 1µM, 5 days) is “decrease in mitochondrial membrane potential”. In the data set on SK-Mel5 cells (Fig. S2C), the “cleavage of caspase 3” value is “not detected”. For the same molecule, the “Apoptosis Inducing Factor (AIF) activation and translocation” value in the data set with SK-Mel5 cells (SK-Mel5, IF staining) was “induced activation, mitochondrial release and nuclear translocation”. Moreover, the “apoptosis (Annexin V-FITC and PI staining)” value in the data set with SK-Mel5 cells (p53^WT melanoma cells, 10µM, 5 days) is on record as “induced apoptosis”. For the same molecule, the “p53 induction/activation in tumors (Western blot)” value with SK-Mel5 xenografts (MLN8237 30mg/kg daily) is given as “modest”. In addition, the “tumor cells showing induction of apoptosis marker AIF” value with SK-Mel5 xenografts (Fig. 3C) was “no more than 15%”. Moreover, the “tumor cells with elevated/strong p53 staining” value with SK-Mel5 xenografts (Fig. S3, untreated control tumors 3–6%) is 11%. The “p53 levels in tumors” value in the data set with B16F0 tumors [2] (IF staining, Fig. 4D) is “not strongly induced”. For the same molecule, in [8] (plasma), the “median (−)-Nutlin-3 AUC0–24hr, plasma” value came to 292.7 µg·h/mL. Moreover, the “median (−)-Nutlin-3 AUC0–24hr, tumor tissue” value in [8] (tumor tissue) turned out to be 455.6 µg·h/mL.

In general, AUC(0-t) refers to exposure summed from dosing to a finite time, without extrapolation to infinity. A high value points to more exposure.
